The source of these data is patent publication US6503929B1, “Nitrate salt of anti-ulcer medicine” (Nicox S.A., priority 1998, dated 2003).

Counter-ions that a name gives are not always drawn.

Data set [1] concerns rats. The conditions noted are these: rat, in vivo, po, 100 mg/kg.
The test system of data set [2] is rats. In words: Anti-ulcer activity: gastric lesions produced by absolute ethyl alcohol (Robert et al. model). The data set is classed as in vivo, rat. The conditions noted are these: rats on empty stomach, oral dose 15 minutes before absolute ethyl alcohol (1 ml), sacrificed one hour later, cimetidine 50 mg/Kg, cimetidine nitrate 62,5 mg/Kg, ranitidine 50 mg/Kg, ranitidine nitrate 60 mg/Kg. As to the method:
Anti-ulcer activity is evaluated according to the experimental model described in the paper of A. Robert e Al. “Cytoprotection by prostaglandins in rats. Prevention of gastric necrosis produced by alcohol, HCl, NaOH, hypertonic NaCl and thermal injury” 77, 433-43 1979. To 5 groups of 10 rats each, kept on empty stomach since the previous night, 15 minutes before the supply of absolute ethyl alcohol (1 ml), by oral way are supplied: 5 ml/Kg of carboxymethylcellulose aqueous suspension 2%. 50 mg/Kg of cimetidine in 5 ml/Kg of carboxymethylcellulose aqueous suspension 2%. 62,5 mg/Kg of cimetidine nitrate (corresponding to 50 mg/Kg of cimetidine) in 5 ml/Kg of carboxymethylcellulose aqueous suspension 2%. 50 mg/Kg of ranitidine in 5 ml/Kg of carboxymethylcellulose aqueous suspension 2%. 60 mg/Kg of ranitidine nitrate (corresponding to […]) in 5 ml/Kg of carboxymethylcellulose aqueous suspension 2%. A hour later the animals are sacrificed and the gastric lesion incidence is evaluated.

For the molecule `CNC(=C[N+](=O)[O-])NCCSCc1ccc(CN(C)C)o1` [Ranitidine.HNO3, ranitidine mononitrate salt], the toxic symptom presence result in data set [1] is “In no one of the group animals the toxic symthom presence was noted”. For the same molecule, in data set [2] (mononitrate salt), the “Gastric Damage %” value came out at 40%.
In the case of `CN/C(=N/CCSCc1nc[nH]c1C)NC#N` [Cimetidine, cimetidine, reference compound], the “Gastric Damage %” value in data set [2] was determined as 100%.
Turning to “cimetidine mononitrate salt [Cimetidine.HNO3]”, in data set [2], the “Gastric Damage %” value was found to be 50%.
Turning to `CNC(=C[N+](=O)[O-])NCCSCc1ccc(CN(C)C)o1` [Ranitidine, ranitidine, reference compound], in data set [2], the “Gastric Damage %” value is 80%.
